{"source": "patent US6355799B1", "about": "“Substituted benzene compounds, process for their preparation, and herbicidal and defoliant compositions containing them” (ISK Americas Incorporated, priority 1997, dated 2002)", "format_in_all_cases": "in vivo", "key": {"[1]": {"test_system": "redroot pigweed (Amaranthus retroflexus, AMARE)", "experiment": "Pre-emerge test, greenhouse herbicide activity screening", "conditions": "pre-emerge, 14 days after application, scale 0-100", "method_in_brief": "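Rating: 0–100 visual injury, 14 DAA. Application: acetone, 187 l/ha, 15–1000 g ai/ha, flat-fan track sprayer with nozzle 40–45 cm above soil or canopy. Post-emerge runs used 0.25% v/v surfactant on 2–3 leaf plants.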"}, "[2]": {"test_system": "ivyleaf morningglory (Ipomoea hederacea, IPOHE)", "experiment": "Pre-emerge test, greenhouse herbicide activity screening", "conditions": "pre-emerge, 14 days after application, scale 0-100", "method_in_brief": "(§1)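 Visual ratings on a 0-100 scale (0 no damage, 100 all plants dead) were taken at 14 days after treatment. Rates of 15-1000 g ai/ha in acetone, 187 l/ha, were sprayed onto soil one day after planting (pre-emerge) or onto 2-3 leaf plants with 0.25% v/v surfactant (post-emerge).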"}, "[3]": {"test_system": "johnsongrass (Sorghum halepense, SORHA)", "experiment": "Pre-emerge test, greenhouse herbicide activity screening", "conditions": "pre-emerge, 14 days after application, scale 0-100", "method_in_brief": "as §1"}, "[4]": {"test_system": "lambsquarters (Chenopodium album, CHEAL)", "experiment": "Pre-emerge test, greenhouse herbicide activity screening", "conditions": "pre-emerge, 14 days after application, scale 0-100", "method_in_brief": "as §1"}, "[5]": {"test_system": "sicklepod (Cassia obtusifolia, CASOB)", "experiment": "Pre-emerge test, greenhouse herbicide activity screening", "conditions": "pre-emerge, 14 days after application, scale 0-100", "method_in_brief": "as §1"}, "[6]": {"test_system": "barnyardgrass (Echinochloa crus-galli, ECHCG)", "experiment": "Pre-emerge test, greenhouse herbicide activity screening", "conditions": "pre-emerge, 14 days after application, scale 0-100", "method_in_brief": "as §1"}, "[7]": {"test_system": "velvetleaf (Abutilon theophrasti, ABUTH)", "experiment": "Pre-emerge test, greenhouse herbicide activity screening", "conditions": "pre-emerge, 14 days after application, scale 0-100", "method_in_brief": "as §1"}, "[8]": {"test_system": "green foxtail (Setaria viridis, SETVI)", "experiment": "Pre-emerge test, greenhouse herbicide activity screening", "conditions": "pre-emerge, 14 days after application, scale 0-100", "method_in_brief": "as §1"}, "[9]": {"test_system": "large crabgrass (Digitaria sanguinalis, DIGSA)", "experiment": "Pre-emerge test, greenhouse herbicide activity screening", "conditions": "pre-emerge, 14 days after application, scale 0-100", "method_in_brief": "as §1"}, "[10]": {"test_system": "field corn (Zea mays L., var. Dekalb 535, CORN)", "experiment": "Post-emerge test, crop safety", "conditions": "post-emerge, 14 days after application, rating scale 0-100", "method_in_brief": "as §1"}, "[11]": {"test_system": "upland rice (Oryza sp., var. Tebonnet, RICE)", "experiment": "Post-emerge test, crop safety", "conditions": "post-emerge, 14 days after application, rating scale 0-100", "method_in_brief": "as §1"}, "[12]": {"test_system": "field corn (Zea mays L., var. Dekalb 535, CORN)", "experiment": "Pre-emerge test, crop safety", "conditions": "pre-emerge, 14 days after application, scale 0-100", "method_in_brief": "(§2)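 Herbicidal damage is scored 0 (none) to 100 (complete plant death) two weeks after a simulated field spray. Rates span 15–1000 g ai/ha, delivered in acetone at 187 l/ha. For post-emergence treatments, plants have 2–3 leaves and the spray carries 0.25% v/v non-ionic surfactant.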"}, "[13]": {"test_system": "upland rice (Oryza sp., var. Tebonnet, RICE)", "experiment": "Pre-emerge test, crop safety", "conditions": "pre-emerge, 14 days after application, scale 0-100", "method_in_brief": "as §2"}, "[14]": {"test_system": "redroot pigweed (Amaranthus retroflexus, AMARE)", "experiment": "Post-emerge test, greenhouse herbicide activity screening", "conditions": "post-emerge, 14 days after application, rating scale 0-100", "method_in_brief": "(§3)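 Fourteen days after spraying, crop and weed injury was graded visually from 0, no effect, to 100, every plant dead. Test substances were dissolved in acetone and applied at 15–1000 g ai/ha with a flat-fan nozzle. Application was either pre-emergence, one day after sowing, or post-emergence at the 2–3 leaf stage.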"}, "[15]": {"test_system": "ivyleaf morningglory (Ipomoea hederacea, IPOHE)", "experiment": "Post-emerge test, greenhouse herbicide activity screening", "conditions": "post-emerge, 14 days after application, rating scale 0-100", "method_in_brief": "as §3"}, "[16]": {"test_system": "johnsongrass (Sorghum halepense, SORHA)", "experiment": "Post-emerge test, greenhouse herbicide activity screening", "conditions": "post-emerge, 14 days after application, rating scale 0-100", "method_in_brief": "as §3"}, "[17]": {"test_system": "lambsquarters (Chenopodium album, CHEAL)", "experiment": "Post-emerge test, greenhouse herbicide activity screening", "conditions": "post-emerge, 14 days after application, rating scale 0-100", "method_in_brief": "as §3"}, "[18]": {"test_system": "common ragweed (Ambrosia artemisizfolia L., AMBEL)", "experiment": "Post-emerge test, greenhouse herbicide activity screening", "conditions": "post-emerge, 14 days after application, rating scale 0-100", "method_in_brief": "as §3"}, "[19]": {"test_system": "sicklepod (Cassia obtusifolia, CASOB)", "experiment": "Post-emerge test, greenhouse herbicide activity screening", "conditions": "post-emerge, 14 days after application, rating scale 0-100", "method_in_brief": "as §3"}, "[20]": {"test_system": "barnyardgrass (Echinochloa crus-galli, ECHCG)", "experiment": "Post-emerge test, greenhouse herbicide activity screening", "conditions": "post-emerge, 14 days after application, rating scale 0-100", "method_in_brief": "as §3"}, "[21]": {"test_system": "velvetleaf (Abutilon theophrasti, ABUTH)", "experiment": "Post-emerge test, greenhouse herbicide activity screening", "conditions": "post-emerge, 14 days after application, rating scale 0-100", "method_in_brief": "as §3"}, "[22]": {"test_system": "green foxtail (Setaria viridis, SETVI)", "experiment": "Post-emerge test, greenhouse herbicide activity screening", "conditions": "post-emerge, 14 days after application, rating scale 0-100", "method_in_brief": "as §3"}, "[23]": {"test_system": "large crabgrass (Digitaria sanguinalis, DIGSA)", "experiment": "Post-emerge test, greenhouse herbicide activity screening", "conditions": "post-emerge, 14 days after application, rating scale 0-100", "method_in_brief": "as §3"}}}
{"smiles": "CCSCC(=O)Nc1c(OC)c(Cl)cc(F)c1-n1c(=O)cc(C(F)(F)F)n(C)c1=O", "note": "[2-172]", "values": [{"measurement": "phytotoxicity rating AMARE", "setting": "[1]; 63 g ai/ha", "value": 70}, {"measurement": "phytotoxicity rating AMARE", "setting": "[1]; 250 g ai/ha", "value": 100}, {"measurement": "phytotoxicity rating IPOHE", "setting": "[2]; 63 g ai/ha", "value": 60}, {"measurement": "phytotoxicity rating IPOHE", "setting": "[2]; 250 g ai/ha", "value": 95}, {"measurement": "phytotoxicity rating SORHA", "setting": "[3]; 63 g ai/ha", "value": 0}, {"measurement": "phytotoxicity rating SORHA", "setting": "[3]; 250 g ai/ha", "value": 40}, {"measurement": "phytotoxicity rating CHEAL", "setting": "[4]; 63 g ai/ha", "value": 30}, {"measurement": "phytotoxicity rating CHEAL", "setting": "[4]; 250 g ai/ha", "value": 100}, {"measurement": "phytotoxicity rating CASOB", "setting": "[5]; 63 g ai/ha", "value": 20}, {"measurement": "phytotoxicity rating CASOB", "setting": "[5]; 250 g ai/ha", "value": 80}, {"measurement": "phytotoxicity rating ECHCG", "setting": "[6]; 63 g ai/ha", "value": 0}, {"measurement": "phytotoxicity rating ECHCG", "setting": "[6]; 250 g ai/ha", "value": 60}, {"measurement": "phytotoxicity rating ABUTH", "setting": "[7]; 63 g ai/ha", "value": 90}, {"measurement": "phytotoxicity rating ABUTH", "setting": "[7]; 250 g ai/ha", "value": 100}, {"measurement": "phytotoxicity rating SETVI", "setting": "[8]; 63 g ai/ha", "value": 20}, {"measurement": "phytotoxicity rating SETVI", "setting": "[8]; 250 g ai/ha", "value": 65}, {"measurement": "phytotoxicity rating DIGSA", "setting": "[9]; 63 g ai/ha", "value": 20}, {"measurement": "phytotoxicity rating DIGSA", "setting": "[9]; 250 g ai/ha", "value": 100}, {"measurement": "CORN phytotoxicity rating (crop damage)", "setting": "[10]; 63 g ai/ha", "value": 5}, {"measurement": "CORN phytotoxicity rating (crop damage)", "setting": "[10]; 250 g ai/ha", "value": 10}, {"measurement": "RICE phytotoxicity rating (crop damage)", "setting": "[11]; 63 g ai/ha", "value": 0}, {"measurement": "RICE phytotoxicity rating (crop damage)", "setting": "[11]; 250 g ai/ha", "value": 10}, {"measurement": "phytotoxicity rating CORN (crop damage)", "setting": "[12]; 63 g ai/ha", "value": 0}, {"measurement": "phytotoxicity rating CORN (crop damage)", "setting": "[12]; 250 g ai/ha", "value": 10}, {"measurement": "phytotoxicity rating RICE (crop damage)", "setting": "[13]; 63 g ai/ha", "value": 10}, {"measurement": "phytotoxicity rating RICE (crop damage)", "setting": "[13]; 250 g ai/ha", "value": 50}, {"measurement": "AMARE phytotoxicity rating", "setting": "[14]; 63 g ai/ha", "value": 60}, {"measurement": "AMARE phytotoxicity rating", "setting": "[14]; 250 g ai/ha", "value": 60}, {"measurement": "IPOHE phytotoxicity rating", "setting": "[15]; 63 g ai/ha", "value": 90}, {"measurement": "IPOHE phytotoxicity rating", "setting": "[15]; 250 g ai/ha", "value": 100}, {"measurement": "SORHA phytotoxicity rating", "setting": "[16]; 63 g ai/ha", "value": 0}, {"measurement": "SORHA phytotoxicity rating", "setting": "[16]; 250 g ai/ha", "value": 0}, {"measurement": "CHEAL phytotoxicity rating", "setting": "[17]; 63 g ai/ha", "value": 35}, {"measurement": "CHEAL phytotoxicity rating", "setting": "[17]; 250 g ai/ha", "value": 60}, {"measurement": "AMBEL phytotoxicity rating", "setting": "[18]; 63 g ai/ha", "value": 30}, {"measurement": "AMBEL phytotoxicity rating", "setting": "[18]; 250 g ai/ha", "value": 80}, {"measurement": "CASOB phytotoxicity rating", "setting": "[19]; 63 g ai/ha", "value": 50}, {"measurement": "CASOB phytotoxicity rating", "setting": "[19]; 250 g ai/ha", "value": 90}, {"measurement": "ECHCG phytotoxicity rating", "setting": "[20]; 63 g ai/ha", "value": 0}, {"measurement": "ECHCG phytotoxicity rating", "setting": "[20]; 250 g ai/ha", "value": 0}, {"measurement": "ABUTH phytotoxicity rating", "setting": "[21]; 63 g ai/ha", "value": 60}, {"measurement": "ABUTH phytotoxicity rating", "setting": "[21]; 250 g ai/ha", "value": 100}, {"measurement": "SETVI phytotoxicity rating", "setting": "[22]; 63 g ai/ha", "value": 0}, {"measurement": "SETVI phytotoxicity rating", "setting": "[22]; 250 g ai/ha", "value": 10}, {"measurement": "DIGSA phytotoxicity rating", "setting": "[23]; 63 g ai/ha", "value": 0}, {"measurement": "DIGSA phytotoxicity rating", "setting": "[23]; 250 g ai/ha", "value": 0}]}
